# Results: patent US8686036B2, “Methods of controlling heart rate while minimizing and/or controlling hypotension” (Baxter International Inc., priority 2011, dated 2014)
# Counter-ions that a name gives are not always drawn.
# Experiments:
# [1] = cited from earlier work
# [2] = tested on: isoproterenol-induced tachycardia; assay: Isoproterenol challenge (isoproterenol-induced tachycardia) in dogs after esmolol infusion; format: in vivo, dog; conditions: for reduction in mean arterial pressure: 10 minutes
# Description: The purpose of this experiment was to determine if the attenuated hypotension (as assessed by mean arterial blood pressure end point) observed in Example 2 following administration of the S-isomer was associated with reduced efficacy (i.e., ability to control isoproterenol-induced tachycardia) as compared with the racemic formulations.
# One dog was administered a bolus dose of isoproterenol (0.25 μg/kg) to establish a baseline heart rate response (FIG. 6a). Isoproterenol is a non-selective […] adrenergic agonist capable of inducing tachycardia. After a washout period, the racemic formulation (RS) was administered at 90 μg/kg/min for 10 minutes immediately followed by an isoproterenol challenge. After a washout period, the S-isomer formulation (S) was administered at 45 μg/kg/min for 10 minutes immediately followed by another isoproterenol challenge. This protocol was repeated using 150 μg/kg/min S-isomer followed by 300 μg/kg/min racemic formulation (FIG. 6b) then 2000 μg/kg/min racemic formulation followed by 1000 μg/kg/min S-isomer (FIG. 6c).
# The experimental protocol was carried out essentially as described in Example 3. In short, each dog was administered racemic esmolol (RS) at the indicated dose for 10 minutes immediately followed by an isoproterenol challenge (a bolus dose of isoproterenol at 0.25 μg/kg). After a washout period, the S-isomer formulation (S) was administered at an equitherapeutic dose for 10 minutes immediately followed by another isoproterenol challenge. This protocol was performed at 90 μg/kg/min RS/45 μg/kg/min S (5 dogs), 300 μg/kg/min RS/150 μg/kg/min S (1 dog), 600 μg/kg/min RS/300 μg/kg/min S (3 dogs), 1000 μg/kg/min RS/500 μg/kg/min S (4 dogs), and 2000 μg/kg/min RS/1000 μg/kg/min S (3 dogs).
# In order to better estimate the true differential effect in hypotensive potential between racemic esmolol and the S-isomer of esmolol at the lower dose range, data from other dogs that were not part of the isoproterenol challenge experiments, but were otherwise treated identically, were combined with the data set from FIG. 12A and presented in FIG. 12B. The additional data points were only from those dogs where a stated dose was administered first or where a sufficient wash-out period preceded the stated dose as to avoid any confounding variables. […] Thus, the lack of significant differentiation in mean arterial pressure seen at the lower doses in FIG. 12A was likely due to the relatively smaller sample size and biological variability.
# [3] = Superimposition of dog systolic blood pressure results with human meta-analysis (Yu et al.); format: in vivo; conditions: at a given dose, FIG. 13, human data of Yu et al.
# Description: The esmolol doses administered to the dogs in the experiments described herein needed to be larger than typical clinical doses used in humans in order to increase repeatability and induce acute hypotension in close to 100% of the dogs by sufficiently increasing the effect level above background noise. To confirm that the results obtained herein with mongrel dogs are clinically relevant, data from the experimental results obtained herein were superimposed with the maximal weighted mean difference in systolic blood pressure results obtained by Yu et al. in a meta-analysis of randomized controlled clinical trials with esmolol hydrochloride (Yu et al., Anesth Analg. 2011 February; 112(2):267-81).
# [4] = Anesthetized mongrel dog model of the hypotensive potential of esmolol infusions; format: in vivo; conditions: for decrease in mean arterial pressure (MAP) from pre-infusion baseline, percent change: high dose infusion protocols, FIG. 10: 2000 μg/kg/min RS, 1000 μg/kg/min S, 1000 μg/kg/min R
# Description: A model system utilizing anesthetized mongrel dogs was established in order to predict the hypotensive potential of esmolol hydrochloride injection in human patients. One dog was administered a formulation containing racemic esmolol hydrochloride at a loading dose of 600 μg/kg/min for 3 minutes followed by a maintenance infusion of 300 μg/kg/min for 10 minutes (referred to as 600RS/300RS) followed by a washout period (FIG. 1). In this and subsequent figures, the duration of infusion of the various medicaments is indicated by a coded horizontal line, parallel to the time axis. This protocol was repeated by administering 2000 μg/kg/min for 3 minutes followed by a maintenance infusion of 1000 μg/kg/min for 10 minutes (referred to as 2000RS/1000RS) and then by administering 400 μg/kg/min for 3 minutes followed by a maintenance infusion of 200 μg/kg/min for 10 minutes (referred to as 400RS/200RS). Mean arterial blood pressure and heart rate were monitored throughout the experiment.
# While the doses administered to the dogs in the experiments described herein were larger than typical clinical doses, the doses were administered in order to increase repeatability and induce acute hypotension in close to 100% of the dogs by sufficiently increasing the effect level above background noise. Moreover, relative to esmolol administration in humans, the dog model replicates within experimental error the same dependence of mean arterial blood pressure versus infusion rate. Therefore, the conclusions reached at these relatively higher dose levels in dogs are relevant to minimization of adverse effects at lower doses in humans.
# In initial experiments, the hypotensive potential of a composition comprising the S-isomer of esmolol hydrochloride was compared to a composition comprising the racemic formulation. Mean arterial blood pressure, cardiac output, and systemic vascular resistance were monitored throughout the experiments. Cardiac output and systemic vascular resistance were evaluated to understand the cause of the hypotension (i.e., decrease in cardiac output and/or decrease in systemic vascular resistance).
# Each of four mongrel dogs was administered increasing doses of esmolol hydrochloride (FIGS. 2-5). Two dogs (D00028 and DG0029) received 150 μg/kg/min of the S-isomer formulation until mean arterial pressure reached a steady state, at which time the animal was immediately switched over to 300 μg/kg/min of the racemic formulation (this protocol is referred to as 150S/300RS in FIGS. 3a and 4a). Once a steady state was reached the infusion was stopped and was followed by a washout period. A similar protocol was repeated in both dogs using 300 μg/kg/min of the S-isomer of esmolol followed by administration of 600 μg/kg/min of the racemic mixture of esmolol (this protocol is 300S/600RS in FIGS. 3b and 4b). A final protocol involved administration of 1000 μg/kg/min of the S-isomer of esmolol followed by administration of 2000 μg/kg/min of the racemic mixture of esmolol followed by 1000 μg/kg/min of the S-isomer of esmolol (this protocol is referred to as 1000S/2000RS/1000S in FIGS. 3c and 4c).
# A similar series of protocols were repeated with the other two dogs (DG0027 and DG0030) except the racemic mixture of esmolol was administered before the S-isomer. In other words, 300 μg/kg/min of the racemic mixture of esmolol was administered, followed by administration of 150 μg/kg/min of the S-isomer of esmolol (this protocol is referred to as 300RS/150S in FIGS. 2a and 5a), 600 μg/kg/min of the racemic mixture of esmolol was administered, followed by administration of 300 μg/kg/min of the S-isomer of esmolol (this protocol is referred to as 600RS/300S in FIGS. 2b and 5b), and 2000 μg/kg/min of the racemic mixture of esmolol was administered, followed by administration of 1000 μg/kg/min of the S-isomer of esmolol, and then 2000 μg/kg/min of the racemic mixture of esmolol again (this protocol is referred to as 2000RS/1000S/2000RS in FIGS. 2c and 5c)]. […]
# [5] = as above; format: in vivo
# beta-adrenergic = conditions: WO 88/01614; cited from earlier work
# [6] = Example 1, one dog, 400RS/200RS, 600RS/300RS, 2000RS/1000RS
smiles,measurement,setting,value
"COC(=O)CCc1ccc(OCC(O)CNC(C)C)cc1 (racemic) [esmolol hydrochloride, methyl-3-[4-(2-hydroxy-3-isopropylamino)propoxy]phenylpropionate hydrochloride]",patients who experienced hypotension,"[1]; clinical trials, packaging insert",20-50%
same,acute hypotension in patients of Asian ancestry,"[1]; loading infusion 500 μg/kg body weight per minute, Ko et al.",all patients administered this dosage experienced acute hypotension
same,mean arterial blood pressure response,"[2]; Example 3, one dog, RS 90, 300, 2000 μg/kg/min vs S 45, 150, 1000 μg/kg/min",greater dose-dependent decrease in mean arterial blood pressure relative to the S-isomer
same,reduction in mean arterial pressure,"[2]; Example 5, infusion rate 1000 μg/kg/min",about 20 mmHg
same,severity of clinical hypotension (systolic blood pressure) in human patients relative to the dog model,[3],more than two times as severe
same,heart rate response,[4]; [6],dose-dependent reflex tachycardia
same,mean arterial blood pressure response,[4]; [6],clear dose-dependent decrease in mean arterial blood pressure
same,mean arterial pressure response,"[4]; Example 2, four dogs, 300, 600, 2000 μg/kg/min, before or after the S-isomer",dose-dependent decrease in mean arterial pressure in all four dogs
same,decrease in MAP from end of first infusion to end of second infusion,"[4]; FIG. 11, initial state S-isomer formulation, then RS racemic mixture",32%
same,"decrease in mean arterial pressure (MAP) from pre-infusion baseline, percent change",[4],40%
"COC(=O)CCc1ccc(OC[C@H](O)CNC(C)C)cc1 (single isomer, unassigned) [R-isomer]",cardiovascular changes following administration,[5]; Example 4,qualitatively identical to those following the administration of the racemic formulation
same,ability to lower heart rate when experimentally increased,[4]; Examples 1-4,"no apparent, inherent ability to lower heart rate"
same,"decrease in mean arterial pressure (MAP) from pre-infusion baseline, percent change",[4],19%
"COC(=O)CCc1ccc(OC[C@@H](O)CNC(C)C)cc1.Cl (single isomer, unassigned) [S-isomer]",hypotension (mean arterial blood pressure) at the high infusion rate,"[2]; Example 3, 1000 μg/kg/min S-isomer vs 2000 μg/kg/min racemic formulation",significantly less hypotension relative to the racemic formulation
same,efficacy in reducing isoproterenol-induced tachycardia,"[2]; Example 3, equitherapeutic amounts (half the racemic dose)",same degree of efficacy in reducing isoproterenol-induced tachycardia as compared with the racemic formulation
same,hypotensive effect (reduction in mean arterial pressure) vs racemic esmolol,"[2]; Example 5, doses greater than 600 μg/kg/min racemic esmolol/300 μg/kg/min S-isomer formulation",differed significantly
same,reduction in mean arterial pressure,"[2]; Example 5, equitherapeutic dose 500 μg/kg/min",about 10 mmHg
same,percent reduction in heart rate following isoproterenol challenge vs racemic esmolol,"[2]; Example 5, equitherapeutic dose (half the racemic dose), all doses, FIG. 12A",essentially identical
same,efficacy in reducing isoproterenol-induced tachycardia,"[2]; Example 5, equitherapeutic doses, across all doses",same degree of efficacy in reducing isoproterenol-induced tachycardia as compared with the racemic formulation
same,"difference in mean arterial pressure vs racemic esmolol, pooled data","[2]; FIG. 12B, 600 μg/kg/min racemic esmolol (7 dogs)/300 μg/kg/min S-isomer (5 dogs)",statistically significant difference in mean arterial pressure
same,mean arterial blood pressure at the high dose infusion rate relative to the racemic formulation,"[5]; Example 4, 1000 μg/kg/min S after 2000 μg/kg/min RS",improved (or increased)
same,potency as beta-adrenergic-blocking agent relative to an equivalent amount of the racemic mixture,beta-adrenergic,about twice
same,hypotension (mean arterial blood pressure) at the high dose infusion protocol,"[4]; Example 2, 1000 μg/kg/min S-isomer vs 2000 μg/kg/min racemic mixture",significantly less hypotension relative to the racemic formulation
same,mean arterial blood pressure during the 1000S phase,"[4]; Example 2, 2000RS/1000S/2000RS protocol, FIG. 2c",increased
same,increase in MAP from end of first infusion to end of second infusion,"[4]; FIG. 11, initial state RS racemic mixture, then S-isomer",34%
same,"decrease in mean arterial pressure (MAP) from pre-infusion baseline, percent change",[4],13%
